Test results taken from US20230233736A1, “ANTIMICROBIAL FORMULATIONS COMPRISING SILICONE” (AMICOAT AS, priority 2020, published 2023).

What was measured:
Clostridium difficile = experiment: MIC microbroth dilution (CLSI); type: cell-based; parameters: unit not given beside the values; settings: antibiotic-susceptible clinical isolate
E. coli (5067-6002) = experiment: Modified AATCC 100 method, silicone membrane valves; settings: low loading, original surface (A*)
S. epidermidis (RP62A) = experiment: as above; settings: low loading, original surface (A*)
P. aeruginosa (PAO1) = experiment: as above; settings: low loading, original surface (A*)
S. aureus (ATCC 8325) = experiment: as above
Bacteroides fragilis = experiment: MIC microbroth dilution (CLSI); type: cell-based; parameters: unit not given beside the values; settings: ATCC 25285; SBB
Eggerthella lenta = experiment: MIC microbroth dilution (CLSI); type: cell-based; parameters: unit not given beside the values; settings: ATCC 43055; SBB
[1] = system: Methicillin resistant Staphylococcus aureus (MRSA) strain ATCC 33591; settings: MRSA ATCC 33591
Salmonella sp = experiment: MIC microbroth dilution (CLSI); type: cell-based
From the text: (§1) Cation-adjusted Mueller-Hinton broth (Oxoid Ltd., Basingstoke, UK and Trek Diagnostic Systems Ltd., East Grinstead, UK) (supplemented with 5% laked horse blood for Streptococcus spp., Corynebacterium jeikeium and Listeria monocytogenes) was used for aerobic bacteria, with an initial inoculum of approximately 10^5 colony-forming units (CFU)/m L.

[2] = system: Staphylococcus saprophyticus; experiment: MIC microbroth dilution (CLSI); type: cell-based; settings: antibiotic susceptible clinical isolate
From the text: as §1

Listeria monocytogenes = experiment: MIC microbroth dilution (CLSI); type: cell-based; settings: antibiotic-susceptible clinical isolate
From the text: as §1

Enterococcus gallinarum = experiment: MIC microbroth dilution (CLSI); type: cell-based; settings: vancomycin-resistant (VanC) clinical isolate
From the text: as §1

Shigella sp = experiment: MIC microbroth dilution (CLSI); type: cell-based; settings: antibiotic-susceptible clinical isolate
From the text: as §1

[3] = system: Stenotrophomonas maltophilia; experiment: MIC microbroth dilution (CLSI); type: cell-based; settings: antibiotic-susceptible clinical isolate
From the text: as §1

[4] = system: Trichophyton interdigitale; experiment: MIC microbroth dilution (CLSI); type: cell-based; settings: G.R. Micro collection
Streptococcus pyogenes = type: cell-based; settings: Macrolide (M-type) resistance clinical isolate
From the text: as §1

[5] = system: Trichophyton mentagrophytes; experiment: MIC microbroth dilution (CLSI); type: cell-based; settings: G.R. Micro collection
Candida tropicalis = experiment: MIC microbroth dilution (CLSI); type: cell-based; settings: ATCC750 - reference strain
trypsin = experiment: in vitro; type: in vitro ADME; settings: pH 8.6
Procedure: Each peptide was dissolved in a 0.1 M NH4HCO3 buffer (pH 6.5) to yield a final peptide concentration of 1 mg/ml. A trypsin solution was prepared by dissolving 1 mg of trypsin in 50 ml 0.1 M NH4HCO3 buffer (pH 8.2). For the stability determination, 250 μl freshly made trypsin solution and 250 μl peptide solution were incubated in 2 ml of 0.1 M NH4HCO3 buffer (pH 8.6) at 37° C. on a rocking table. Aliquots of 0.5 ml were sampled at different time intervals, diluted with 0.5 ml water:acetonitrile (60:40 v/v) containing 1% TFA and analysed by RP-HPLC as described above. Samples without trypsin addition taken at 0 h and after 20 h at 37° C. were used as negative controls. Integration of the peak area at 254 nm for samples taken during the first 5 hours of the assay was used to generate the […].

[6] = system: Staphylococcus hominis 58-69; experiment: Growth inhibition zones around silicone prosthetic liner; type: cell-based
From the text: (§2) Bacterial Strains: • Staphylococcus epidermidis RP62A • Staphylococcus hominis 58-69
(§3) The level of bacterial inhibition was examined by number of CFU and growth zone inhibition. All materials tested were washed with water after completion of the swell and dry procedure to ensure that the activity of the materials was due to internally absorbed AMC-109 only.

[7] = system: Staphylococcus epidermidis RP62A; experiment: as above; type: cell-based
From the text: as §2, §3

Microsporum canis = experiment: MIC microbroth dilution (CLSI); type: cell-based; settings: G.R. Micro collection
Cryptococcus neoformans = experiment: MIC microbroth dilution (CLSI); type: cell-based; settings: G.R. Micro collection
[8] = system: Methicillin resistant Staphylococcus epidermidis (MRSE) strain ATCC 27626; settings: MRSE ATCC 27626
Acinetobacter baumanii = experiment: MIC microbroth dilution (CLSI); type: cell-based; parameters: unit not given beside the values; settings: antibiotic-susceptible clinical isolate
From the text: as §1

[9] = system: Staphylococcus hominis 58-69; experiment: CFU on silicone prosthetic liner patches; type: cell-based; settings: washed with water
Procedure: as §2
(§4) Overnight colonies of S. epidermidis or S. hominis were diluted to 0.5 McFarland (1×10^8 CFU/ml) in 0.85% NaCl. The bacterial solution was further diluted in Tryptic Soy Broth media (to 1×10^5 CFU/ml) and drops of 100 μl was applied to the surfaces of the silicone patches. Silicone patches were placed on glass microscope slides, and the glass slides were placed in a moist incubation chamber and incubated for 24 hours at 37° C.
(§5) For determining CFU, the samples were vortexed in 1 ml 0.85% NaCl and serial dilutions (10^−1 to 10^−6) were made. 100 μl aliquots of the serial dilutions were streaked on blood agar plates, and further incubated overnight prior to CFU counting.
as §3

[10] = system: Staphylococcus epidermidis RP62A; experiment: CFU on silicone prosthetic liner patches; type: cell-based; settings: washed with water
Procedure: as §2, §4, §5, §3

Q: How did the MIC (Clostridium difficile) turn out when `CC(C)(C)c1cc(C(C)(C)C)c2[nH]c(C(C)(C)C)c(CC(NC(=O)C(N)CCCNC(=N)N)C(=O)NC(CCCNC(=N)N)C(=O)NCCc3ccccc3)c2c1` (centres unmarked) [Compound 2] was run?
A: 16

Q: What about the “CFU (samples containing AMC-109)” value (E. coli (5067-6002)) of the same molecule?
A: 0

Q: What about the “CFU (samples containing AMC-109)” value (S. epidermidis (RP62A)) of the same molecule?
A: 0

Q: What about the “CFU (samples containing AMC-109)” value (P. aeruginosa (PAO1)) of the same molecule?
A: 0

Q: And the “CFU (samples containing AMC-109)” value (S. aureus (ATCC 8325); High loading, swell concentration 8.3 mg/ml, original surface (A*))?
A: 0

Q: What about the “CFU (samples containing AMC-109)” value (S. aureus (ATCC 8325); Low loading, 1.7 mg/ml, surface created by slicing (B*)) of the same molecule?
A: 0

Q: And the “CFU (samples containing AMC-109)” value (S. aureus (ATCC 8325); Low with washing, 3.1 mg/ml, original surface (A*))?
A: 0

Q: What about the “CFU (samples containing AMC-109)” value (S. aureus (ATCC 8325); Low with washing, 3.1 mg/ml, surface created by slicing (B*)) of the same molecule?
A: 0

Q: And the MIC (Bacteroides fragilis)?
A: 64

Q: And the MIC (Eggerthella lenta)?
A: 32

Q: And the MIC [1]?
A: <3 µM

Q: And the MIC (Salmonella sp; antibiotic-susceptible clinical isolate)?
A: 8

Q: And the MIC (Salmonella sp; multi-drug resistant clinical isolate)?
A: 8

Q: What about the MIC [2] of the same molecule?
A: 1

Q: What about the MIC (Listeria monocytogenes) of the same molecule?
A: 16

Q: And the MIC (Enterococcus gallinarum)?
A: 4

Q: What about the MIC (Shigella sp) of the same molecule?
A: 8

Q: What about the MIC [3] of the same molecule?
A: 8

Q: What about the MIC [4] of the same molecule?
A: 8

Q: And the MIC (Streptococcus pyogenes)?
A: 16

Q: What about the MIC [5] of the same molecule?
A: 8

Q: And the MIC (Candida tropicalis)?
A: 4

Q: What about the half-life at 0.1 mg/ml (trypsin) of the same molecule?
A: > 24 h

Q: What about the growth inhibition zone ([6]; 5 minutes swell time) of the same molecule?
A: 4 mm

Q: And the growth inhibition zone ([6]; 15 minutes swell time)?
A: 2 mm

Q: And the growth inhibition zone ([7]; 5 minutes swell time)?
A: 3 mm

Q: What about the growth inhibition zone ([7]; 15 minutes swell time) of the same molecule?
A: 3 mm

Q: What about the MIC (Microsporum canis) of the same molecule?
A: 8

Q: And the MIC (Cryptococcus neoformans)?
A: 4

Q: What about the MIC [8] of the same molecule?
A: <3 µM

Q: And the MIC (Acinetobacter baumanii)?
A: 16

Q: What about the CFU ([9]; 5 minutes swell time) of the same molecule?
A: 0 CFU/ml

Q: And the CFU ([9]; 15 minutes swell time)?
A: 0 CFU/ml

Q: What about the CFU ([10]; 5 minutes swell time) of the same molecule?
A: 0 CFU/ml

Q: What about the CFU ([10]; 15 minutes swell time) of the same molecule?
A: 0 CFU/ml
